# US20070050862A1, “Promoter and methods of use in plants” (priority 2005, published 2007)
# Legend:
# Assay type in all cases: in vivo, Arabidopsis thaliana
# [1] = tested on: AtCel5-GUS expression; experiment: GUS activity in roots of transgenic AtCel5-GUS seedlings (fluorometric MUG assay); settings: for Relative activity (GUS activity relative to controls): overlaid 24 hours with 10 ml of 100 μM ABA, fitted slope ± standard error
# Description: To investigate the influence of indole-3-acetic acid (IAA; Sigma) plants were grown under liquid conditions as well as vertical plates. In all experiments the roots were separated from the shoots, frozen in liquid Nitrogen, and stored at −80° C. prior to analysis. […] Seeds were cold treated for 4 days at 4° C. to promote even germination. Liquid cultures were placed on a rotary shaker at 120 rpm and grown under 24 hours of fluorescent light at room temperature. […] Plates were transferred to the light incubator for 10 days and set in a vertical position. The inhibitory effect of NPA on root gravity perception was examined by observing the direction of root growth in plates set in a horizontal position.
# For analysis of the effects of ABA, a 100 mM ABA stock solution was prepared in 100% ethanol (13.22 mg ABA/0.5 ml) and then diluted 1000× in water. Seeds expressing AtCel5-GUS were plated on agar basal medium and grown for 7 and 10 days. Under sterile conditions, plates with seedlings were opened and 10 ml of 100 μM ABA was added to bathe the seedlings. Plates were then set horizontally in the light incubator for 24 hours.
# Quantification of GUS activity was performed according to the method of Jefferson et al. (1987) using the fluorogenic substrate MUG (4-methyl-umbelliferyl-β-D-glucuronide). Only root tissue was used to analyze GUS activity. Tissues were ground in MUG extraction buffer and centrifuged for 5 minutes, at maximal speed in a microfuge, to clear the supernatant. An aliquot of crude extract containing the same number of root tips per treatment was mixed with the MUG reaction buffer containing 2 mM MUG and incubated at 37° C. Five or six aliquots were taken from the enzyme reaction at 60 minute intervals. At each time point, the reaction was stopped with 0.2 M Na2CO3. Fluorescence was determined using a one-channel fluorometer (Turner Designs Picofluor) with an excitation range of 365-395 nm and emission wavelengths of greater than 430 nm. The fitted linear slope (±standard error) of fluorescence vs. incubation time was used as a relative measure of GUS content for comparison of controls and treatments.
# [2] = tested on: AtCel5-GUS expression in the root cap; experiment: Histochemical GUS staining of AtCel5-GUS seedlings
# Description: For analysis of ethylene regulation, seeds expressing AtCel5-GUS were plated on agar containing half-strength MS medium supplemented with 10 μM of 1 aminocyclo-propane-1 carboxylic acid (ACC; Sigma), made from a stock (1000×) prepared in water. […]
# Plant tissues were collected in 90% acetone and incubated on ice for at least 10 min. Tissues were rinsed with 50 mM NaPO4 pH 7.2, […] and […] and then placed in staining solution (2 mM 5-bromo-4-chloro-3-indolyl-β-D-[…] [X-Glu; Sigma] in rinse solution), vacuum infiltrated for 10 minutes and finally incubated at 37° C. for 2 hours or overnight. Seedlings were examined using a microscope and photographed with a Digital Nikon 990 Camera.
# [3] = tested on: AtCel5 transcript; experiment: RT-PCR of AtCel5 transcript in roots, normalized to KOR; settings: 10 μM ACC
# Description: For comparative RT-PCR analysis of roots exposed to various treatments, or the analysis of expression of the AtCel5 duplicon, a two-step RT-PCR was performed using the Retroscript kit (Ambion, Austin, Tex.). Total root RNA was pretreated with DNAse prior to reverse transcription (Ambion DNA-free kit). The first strand cDNA was prepared with oligo dT primers and used as template for PCR reactions. RT-PCR was normalized using Actin-11 or KOR as internal standards. […] Each cycle included a denaturation and an extension step at 94° C. for 45 seconds, and at 72° C. for 70 seconds, respectively. The annealing step was carried out for 30 seconds at the temperature optimal for each primer pair: • AtCel5 (set II), 58° C.; KOR, 62° C.; Actin-11, 60° C.; AtCel3, 65° C.
smiles,measurement,setting,value
"O=C(O)Cc1c[nH]c2ccccc12 [IAA, indole-3-acetic acid]",Quantitative GUS activity in roots compared to controls,[1]; agar plates supplemented with 10 μM IAA,large decrease
same,GUS activity compared to controls,[1]; seedlings grown on liquid MS containing IAA (50 μM),greatly reduced
"O=C(O)c1ccccc1C(=O)Nc1cccc2ccccc12 [NPA, N-1-naphthylphthalamic acid]",Quantitative GUS activity in roots compared to controls,[1]; agar plates supplemented with 1 μM NPA,large decrease
"NC1(C(=O)O)CC1 [ACC, 1 aminocyclo-propane-1 carboxylic acid]",AtCel5-GUS expression once growth stalled,"[2]; after 10 days on ACC plates, staining reappeared on fresh media without ACC",disappeared
same,GUS staining in the root cap,[2]; seedlings grown for 10 days on MS plates containing 10 μM ACC,still observed
same,"AtCel5 transcript, control vs treated roots",[3],no significant changes
"CC1=CC(=O)CC(C)(C)C1(O)/C=C/C(C)=C\C(=O)O (stereo not drawn) [ABA, abscissic acid]",AtCel5 expression after ABA treatment,"[1]; 24 hour ABA treatment, both experiments, vs control",reduced by almost half
same,Relative activity (GUS activity relative to controls),[1]; Experiment number 1: seedlings 7 days post-germination,0.53 ± 0.04
same,Relative activity (GUS activity relative to controls),[1]; Experiment number 2: seedlings 10 days post germination,0.42 ± 0.06
